In PubChem BioAssay AID248 (DTP/NCI, 2004):
Several values for one entry are separate records, joined by “and”; a condition that tells them apart may be missing. Identical values can stand only once. Toxic doses and inconclusive results are not listed.

System: L1210 leukemia ip in BDF1 mice, survival T/C
Assay: NCI In Vivo Anticancer Drug Screen. Data for tumor model L1210 Leukemia (intraperitoneal) in B6D2F1 (BDF1) mice
Conditions: endpoint: mean survival time, higher = longer survival
Summary of the method: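 Each compound was tested against a transplantable tumor grown in mice. The endpoint was survival, with treated animals benchmarked against vehicle controls as a simple ratio.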

[1] = dose: 100.0 mg/kg/injection, schedule: Q01DX009 (ip), vehicle: Klucel (hydroxypropylcellulose) (HPC)
[2] = dose: 200.0 mg/kg/injection, schedule: Q01DX009 (ip), vehicle: Klucel (hydroxypropylcellulose) (HPC)
[3] = dose: 50.0 mg/kg/injection, schedule: Q01DX009 (ip), vehicle: saline
[4] = dose: 100.0 mg/kg/injection, schedule: Q01DX009 (ip), vehicle: saline
[5] = dose: 200.0 mg/kg/injection, schedule: Q01DX009 (ip), vehicle: saline
[6] = dose: 100.0 mg/kg/injection, schedule: Q04DX002 (ip), vehicle: Klucel (hydroxypropylcellulose) (HPC)
[7] = dose: 200.0 mg/kg/injection, schedule: Q04DX002 (ip), vehicle: Klucel (hydroxypropylcellulose) (HPC)
[8] = dose: 400.0 mg/kg/injection, schedule: Q04DX002 (ip), vehicle: Klucel (hydroxypropylcellulose) (HPC)
[9] = dose: 100.0 mg/kg/injection, schedule: Q04DX003 (ip), vehicle: Klucel (hydroxypropylcellulose) (HPC)
[10] = dose: 200.0 mg/kg/injection, schedule: Q04DX003 (ip), vehicle: Klucel (hydroxypropylcellulose) (HPC)
[11] = dose: 400.0 mg/kg/injection, schedule: Q04DX003 (ip), vehicle: Klucel (hydroxypropylcellulose) (HPC)
[12] = dose: 100.0 mg/kg/injection, schedule: Q01DX009 (ip), vehicle: saline with Tween-80
[13] = dose: 200.0 mg/kg/injection, schedule: Q01DX009 (ip), vehicle: saline with Tween-80
[14] = dose: 100.0 mg/kg/injection, schedule: Q04DX003 (ip), vehicle: saline
[15] = dose: 400.0 mg/kg/injection, schedule: Q01DX009 (ip), vehicle: Klucel (hydroxypropylcellulose) (HPC)

With `OCc1ccccc1O` the T/C (dose: 50.0 mg/kg/injection, schedule: Q01DX009 (ip), vehicle: Klucel (hydroxypropylcellulose) (HPC)) was 105 % of control, the T/C (dose: 100.0 mg/kg/injection, schedule: Q01DX001 (ip), vehicle: Klucel (hydroxypropylcellulose) (HPC)) was 100 % of control and the T/C [1] was 102 % of control. For the same compound, the T/C (dose: 200.0 mg/kg/injection, schedule: Q01DX001 (ip), vehicle: Klucel (hydroxypropylcellulose) (HPC)) was 100 % of control, the T/C [2] was 102 % of control and the T/C (dose: 400.0 mg/kg/injection, schedule: Q01DX001 (ip), vehicle: Klucel (hydroxypropylcellulose) (HPC)) was 106 % of control.
With `COCC1OC(OC2OCC3OC4(OCC(O)(C(C)OC)C5OCOC54)OC3C2OC)C(OC)C(O)C1OC1OC(C)C(OC)C(OC2OC(C)C3OC4(CC(O)C(OC5CC(OC6CC(C)([N+](=O)[O-])C(OC)C(C)O6)C(OC(=O)c6c(C)c(Cl)c(O)c(Cl)c6OC)C(C)O5)C(C)O4)OC3(C)C2O)C1O` (stereo not given) the T/C [3] was 106 % of control, the T/C [4] was 106 % of control and the T/C [5] was 96 % of control.
`CC1(C)N=C(N)N=C(N)N1c1cccc(CCCCCc2ccccc2)c1` was tested, and the T/C (dose: 25.0 mg/kg/injection, schedule: Q01DX001 (ip), vehicle: saline) was 94 % of control.
In the case of `CCCN(C(=O)CCl)c1ccccc1`, the T/C (dose: 12.5 mg/kg/injection, schedule: Q04DX002 (ip), vehicle: Klucel (hydroxypropylcellulose) (HPC)) is reported as 122 % of control, the T/C (dose: 25.0 mg/kg/injection, schedule: Q04DX002 (ip), vehicle: Klucel (hydroxypropylcellulose) (HPC)) is reported as 94 % of control and the T/C (dose: 50.0 mg/kg/injection, schedule: Q04DX002 (ip), vehicle: Klucel (hydroxypropylcellulose) (HPC)) is reported as 105 % of control.
`[Co].[NH-]C(=O)c1ccccn1.[NH2-].[NH2-].[NH2-].[NH2-].[NH2-]` was tested, and the T/C (dose: 100.0 mg/kg/injection, schedule: Q04DX002 (ip), vehicle: saline) was 118 % of control, the T/C (dose: 200.0 mg/kg/injection, schedule: Q04DX002 (ip), vehicle: saline) was 101 % of control and the T/C (dose: 400.0 mg/kg/injection, schedule: Q04DX002 (ip), vehicle: saline) was 108 % of control.
`CN(Cc1ccccc1)C(=O)C(Cl)Cl` was tested, and the T/C [6] was 103 % of control, the T/C [7] was 117 % of control and the T/C [8] was 109 % of control.
`CSc1nc(Cl)nc(SC)n1` was tested, and the T/C [9] was 96 % of control, the T/C [10] was 96 % of control and the T/C [11] was 96 % of control.
For `O=C1OC(=O)C2C3C=CC(C12)C1C2C(=O)OC(=O)C2C31` (stereo not given), the T/C (dose: 100.0 mg/kg/injection, schedule: Q04DX003 (ip), vehicle: saline with Tween-80) was 94 % of control, the T/C (dose: 200.0 mg/kg/injection, schedule: Q04DX003 (ip), vehicle: saline with Tween-80) was 94 % of control and the T/C (dose: 400.0 mg/kg/injection, schedule: Q04DX003 (ip), vehicle: saline with Tween-80) was 91 % of control.
`CCCCCCCCCCCC(=O)NC(=S)NCc1cccnc1` was tested, and the T/C (dose: 100.0 mg/kg/injection, schedule: Q01DX001 (ip), vehicle: saline with Tween-80) was 92 % of control, the T/C [12] was 101 % of control and 105 % of control and the T/C (dose: 100.0 mg/kg/injection, schedule: Q04DX002 (ip), vehicle: saline with Tween-80) was 98 % of control and 100 % of control. For the same compound, the T/C (dose: 200.0 mg/kg/injection, schedule: Q01DX001 (ip), vehicle: saline with Tween-80) was 93 % of control, the T/C [13] was 99 % of control and 107 % of control and the T/C (dose: 200.0 mg/kg/injection, schedule: Q04DX002 (ip), vehicle: saline with Tween-80) was 108 % of control and 112 % of control. The T/C (dose: 400.0 mg/kg/injection, schedule: Q01DX001 (ip), vehicle: saline with Tween-80) was 98 % of control, the T/C (dose: 400.0 mg/kg/injection, schedule: Q01DX009 (ip), vehicle: saline with Tween-80) was 96 % of control and 108 % of control and the T/C (dose: 400.0 mg/kg/injection, schedule: Q04DX002 (ip), vehicle: saline with Tween-80) was 105 % of control.
For `Nc1ccc(Cl)cc1N`, the T/C (dose: 90.0 mg/kg/injection, schedule: Q01DX001 (ip), vehicle: other) was 100 % of control, the T/C (dose: 90.0 mg/kg/injection, schedule: Q04DX003 (ip), vehicle: other) was 97 % of control and the T/C [12] was 104 % of control. The T/C (dose: 100.0 mg/kg/injection, schedule: Q04DX002 (ip), vehicle: other) was 107 % of control, the T/C (dose: 175.0 mg/kg/injection, schedule: Q01DX001 (ip), vehicle: other) was 105 % of control and the T/C (dose: 175.0 mg/kg/injection, schedule: Q01DX009 (ip), vehicle: other) was 111 % of control. The T/C (dose: 175.0 mg/kg/injection, schedule: Q04DX003 (ip), vehicle: other) was 100 % of control, the T/C [13] was 114 % of control and the T/C (dose: 200.0 mg/kg/injection, schedule: Q04DX002 (ip), vehicle: other) was 107 % of control. The T/C (dose: 265.0 mg/kg/injection, schedule: Q01DX001 (ip), vehicle: other) was 99 % of control, the T/C (dose: 265.0 mg/kg/injection, schedule: Q01DX009 (ip), vehicle: other) was 151 % of control and the T/C (dose: 265.0 mg/kg/injection, schedule: Q04DX003 (ip), vehicle: other) was 106 % of control. For the same compound, the T/C (dose: 400.0 mg/kg/injection, schedule: Q01DX001 (ip), vehicle: other) was 110 % of control, the T/C (dose: 400.0 mg/kg/injection, schedule: Q04DX002 (ip), vehicle: other) was 114 % of control and the T/C (dose: 400.0 mg/kg/injection, schedule: Q04DX003 (ip), vehicle: other) was 104 % of control.
`NC(C(=O)O)C(C(=O)O)c1ccccc1` (stereo not given) was tested, and the T/C [6] was 101 % of control, the T/C [7] was 101 % of control and the T/C [8] was 93 % of control.
`CCCCN(CCCC)CCCC#N` was tested, and the T/C (dose: 25.0 mg/kg/injection, schedule: Q01DX009 (ip), vehicle: saline) was 105 % of control, the T/C (dose: 25.0 mg/kg/injection, schedule: Q04DX003 (ip), vehicle: saline) was 106 % of control and the T/C [3] was 103 % of control. The T/C (dose: 50.0 mg/kg/injection, schedule: Q04DX003 (ip), vehicle: saline) was 100 % of control, the T/C [4] was 100 % of control and the T/C [14] was 103 % of control and 105 % of control.
For `c1ccc([S+]([CH2][Hg][CH2][S+](c2ccccc2)c2ccccc2)c2ccccc2)cc1`, the T/C (dose: 5.0 mg/kg/injection, schedule: Q01DX001 (ip), vehicle: saline) was 92 % of control, the T/C (dose: 10.0 mg/kg/injection, schedule: Q01DX001 (ip), vehicle: saline) was 109 % of control and the T/C (dose: 20.0 mg/kg/injection, schedule: Q01DX001 (ip), vehicle: saline) was 119 % of control.
With `CCc1oc2cc([N+](=O)[O-])ccc2c1C(OC(C)=O)OC(C)=O` the T/C [1] was 100 % of control, the T/C [2] was 105 % of control and the T/C [15] was 96 % of control.
For `COC(=O)c1ccccc1NC(=O)Nc1cccc(OC)c1`, the T/C [6] was 108 % of control, the T/C [7] was 97 % of control and the T/C [8] was 105 % of control.
In the case of `Cc1ccc(Cl)cc1NC(=O)c1ccccc1C(=O)O`, the T/C [1] is reported as 102 % of control, the T/C [9] is reported as 102 % of control and the T/C [2] is reported as 97 % of control. For the same compound, the T/C [10] was 101 % of control, the T/C [15] was 96 % of control and the T/C [11] was 102 % of control.
`CCCCCCCCP(=O)(CCCCCCCC)CCCCCCCC` was tested, and the T/C (dose: 50.0 mg/kg/injection, schedule: Q01DX001 (ip), vehicle: carboxymethylcellulose (CMC)) was 95 % of control, the T/C (dose: 100.0 mg/kg/injection, schedule: Q01DX001 (ip), vehicle: carboxymethylcellulose (CMC)) was 95 % of control and the T/C (dose: 200.0 mg/kg/injection, schedule: Q01DX001 (ip), vehicle: carboxymethylcellulose (CMC)) was 95 % of control. The T/C (dose: 400.0 mg/kg/injection, schedule: Q01DX001 (ip), vehicle: carboxymethylcellulose (CMC)) was 101 % of control.
For `CCOC(=O)NC1c2ccccc2Oc2ccccc21`, the T/C (dose: 75.0 mg/kg/injection, schedule: Q01DX009 (ip), vehicle: saline) was 115 % of control, the T/C [6] was 102 % of control and the T/C (dose: 150.0 mg/kg/injection, schedule: Q01DX009 (ip), vehicle: saline) was 103 % of control. The T/C [7] was 105 % of control, the T/C (dose: 300.0 mg/kg/injection, schedule: Q01DX009 (ip), vehicle: saline) was 111 % of control and the T/C [8] was 102 % of control.
With `Cc1cccc(=O)n1CCC#N` the T/C [4] was 96 % of control, the T/C [14] was 101 % of control and the T/C [5] was 106 % of control. The T/C (dose: 200.0 mg/kg/injection, schedule: Q04DX003 (ip), vehicle: saline) was 93 % of control, the T/C (dose: 400.0 mg/kg/injection, schedule: Q01DX009 (ip), vehicle: saline) was 112 % of control and the T/C (dose: 400.0 mg/kg/injection, schedule: Q04DX003 (ip), vehicle: saline) was 106 % of control.
For `CCN(CC)c1ccc(/C=C/c2ccncc2)cc1`, the T/C [1] was 93 % of control, the T/C [9] was 104 % of control and the T/C [2] was 92 % of control. For the same compound, the T/C [10] was 96 % of control, the T/C [15] was 90 % of control and the T/C [11] was 93 % of control.
